Reference: patent publication US12071424B2, “IRE1 small molecule inhibitors” (Cornell University, priority 2017, dated 2024)

These molecules were tested against T1, IRE1a (Homo sapiens, UniProt O75460) (assay: In vitro FRET assay (IRE1a cleavage of XBP1 RNA probe)). Details: 2 nM SignalChem IRE1a, tested as Formic Acid Salt (37: HCl Salt).
T1 construct: purchased SignalChem
T1 sequence (O75460 19-977): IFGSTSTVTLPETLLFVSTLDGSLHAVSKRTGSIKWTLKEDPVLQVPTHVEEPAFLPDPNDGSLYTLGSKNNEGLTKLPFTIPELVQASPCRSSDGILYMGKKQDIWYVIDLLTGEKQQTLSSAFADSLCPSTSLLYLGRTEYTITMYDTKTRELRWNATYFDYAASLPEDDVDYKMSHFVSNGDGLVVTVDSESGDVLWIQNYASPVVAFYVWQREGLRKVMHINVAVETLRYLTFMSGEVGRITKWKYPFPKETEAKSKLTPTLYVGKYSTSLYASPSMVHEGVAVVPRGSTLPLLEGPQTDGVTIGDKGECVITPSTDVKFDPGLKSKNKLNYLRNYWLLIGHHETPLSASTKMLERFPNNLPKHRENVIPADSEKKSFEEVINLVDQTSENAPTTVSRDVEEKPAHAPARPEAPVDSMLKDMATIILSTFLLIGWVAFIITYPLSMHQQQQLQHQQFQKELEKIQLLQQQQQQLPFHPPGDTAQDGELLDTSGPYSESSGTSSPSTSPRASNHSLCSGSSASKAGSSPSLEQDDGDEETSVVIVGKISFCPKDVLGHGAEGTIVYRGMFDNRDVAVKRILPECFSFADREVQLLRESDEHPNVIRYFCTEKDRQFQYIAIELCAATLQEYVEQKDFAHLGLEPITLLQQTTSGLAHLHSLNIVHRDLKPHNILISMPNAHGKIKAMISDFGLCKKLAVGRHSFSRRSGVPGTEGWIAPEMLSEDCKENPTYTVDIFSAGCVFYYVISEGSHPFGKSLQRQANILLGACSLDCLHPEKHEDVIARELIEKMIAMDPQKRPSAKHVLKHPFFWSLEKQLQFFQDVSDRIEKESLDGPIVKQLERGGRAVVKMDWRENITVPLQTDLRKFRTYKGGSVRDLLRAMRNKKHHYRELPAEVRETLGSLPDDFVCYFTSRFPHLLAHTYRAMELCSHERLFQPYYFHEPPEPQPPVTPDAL
Format: biochemical
Method: In vitro FRET assay was performed to evaluate the ability of select compounds to inhibit IRE1, the results of which are summarized in Table 3. To perform the in vitro FRET assay, 1× complete assay buffer (CAB: […], 50 mM sodium citrate pH 7.15, 1 mM magnesium acetate, 0.02% tween 20) was used to SignalChem IRE1a protein to a final concentration of 2 nM. Selected compounds were serially diluted with DMSO in a non-binding black 384-well plate for a total of 15 ul in each well. 2 ul of the serially diluted compound or DMSO control were then added to new wells containing 98 ul of 1× CAB, for a total volume of 100 ul, 10 ul of which were then transferred to wells of a new plate. 5 ul of the diluted IRE1a was then added to each well. 5 ul of a […] XBP1 RNA probe was then added to each well. Fluorescence was then read over 30 minutes in kinetic mode (485/515 nm).
Two RNA probes were used, XBP1 wildtype (SEQ ID NO: 2) which is able to be spliced by active IRE1a or XBP1 mutant (SEQ ID NO: 3) which is unable to be spliced. Each probe contained a 5′ 6-FAM modification and a 3′ IOWA black FQ modification. […]
`CCc1cc(-c2ccc(NS(=O)(=O)c3ccccc3Cl)nc2C)cc2cnc(N[C@H]3CC[C@H](N(C)CC(F)(F)F)CC3)nc12` [Compound 126, 2-chloro-N-(5-(8-ethyl-2-(((1r,4r)-4-(methyl(2,2,2-trifluoroethyl)amino)cyclohexyl)amino)quinazolin-6-yl)-6-methylpyridin-2-yl)benzenesulfonamide] showed an IC50 of 50 to 100 nM.
With `CCc1cc(-c2cc(F)c(NS(=O)(=O)c3ccccc3Cl)cc2OC)cc2cnc(N[C@H]3CC[C@H](N)CC3)nc12` [Compound 42, N-(4-(2-(((1r,4r)-4-aminocyclohexyl)amino)-8-ethylquinazolin-6-yl)-2-fluoro-5-methoxyphenyl)-2-chlorobenzene-sulfonamide] the IC50 was ≤ 5 nM.
With `COc1cc(-c2cc(NS(=O)(=O)c3ccccc3Cl)nn2C)cc2cnc(N[C@H]3CC[C@H](N)CC3)nc12` [Compound 45, N-(5-(2-(((1r,4r)-4-aminocyclohexyl)amino)-8-methoxyquinazolin-6-yl)-1-methyl-1H-pyrazol-3-yl)-2-chlorobenzene-sulfonamide] the IC50 was 50 to 100 nM.
With `CCc1cc(NS(=O)(=O)c2ccccc2Cl)nnc1-c1cc(CC)c2nc(N[C@H]3CC[C@H](N)CC3)ncc2c1` [Compound 96, N-(6-(2-(((1r,4r)-4-aminocyclohexyl)amino)-8-ethylquinazolin-6-yl)-5-ethylpyridazin-3-yl)-2-chlorobenzenesulfonamide] the IC50 was ≤ 5 nM.
In the case of `Cc1cc(N(C)S(=O)(=O)c2ccccc2Cl)ccc1-c1cc(O)c2nc(N[C@H]3CC[C@H](N)CC3)ncc2c1` [Compound 30, N-(4-(2-(((1r,4r)-4-aminocyclohexyl)amino)-8-hydroxyquinazolin-6-yl)-3-methylphenyl)-2-chloro-N-methylbenzene-sulfonamide], the IC50 is reported as 50 to 100 nM.
In the case of `COc1cc(-c2ccc(NS(=O)(=O)c3ccccc3Cl)cc2C)cc2cnc(N[C@H]3CC[C@H](N)CC3)nc12` [Compound 36, N-(4-(2-(((1r,4r)-4-aminocyclohexyl)amino)-8-methoxyquinazolin-6-yl)-3-methylphenyl)-2-chlorobenzene-sulfonamide], the IC50 is reported as ≤ 5 nM.
For `N[C@H]1CC[C@H](Nc2ncc3cc(-c4ccc(NS(=O)(=O)c5ccccc5Cl)nn4)ccc3n2)CC1` [Compound 49, N-(6-(2-(((1r,4r)-4-aminocyclohexyl)amino)quinazolin-6-yl)pyridazin-3-yl)-2-chlorobenzene-sulfonamide], the IC50 was ≤ 5 nM.
With `N[C@H]1CC[C@H](Nc2ncc3cc(-c4ccc(NS(=O)(=O)c5ccccc5Cl)c(F)c4)ccc3n2)CC1` [Compound 50, N-(4-(2-(((1r,4r)-4-aminocyclohexyl)amino)quinazolin-6-yl)-2-fluorophenyl)-2-chlorobenzene-sulfonamide] the IC50 was ≤ 5 nM.
Molecule `CCc1cc(-c2ccc(NS(=O)(=O)c3ccccc3Cl)nc2OC)cc2cnc(N[C@H]3CC[C@@](C)(N(C)C)CC3)nc12` [Compound 143, 2-chloro-N-(5-(2-(((1s,4s)-4-(dimethylamino)-4-methylcyclohexyl)amino)-8-ethylquinazolin-6-yl)-6-methoxypyridin-2-yl)benzenesulfonamide] has an IC50 of 5 to 50 nM.
With `CCc1cc(-c2cnc(NS(=O)(=O)c3ccccc3Cl)s2)cc2cnc(N[C@H]3CC[C@H](N)CC3)nc12` [Compound 41] the IC50 was ≤ 5 nM.
With `CCc1cc(-c2ccc(N(C)S(=O)(=O)c3ccccc3Cl)cc2C)cc2cnc(N[C@H]3CC[C@H](N)CC3)nc12` [Compound 31, N-(4-(2-(((1r,4r)-4-aminocyclohexyl)amino)-8-ethylquinazolin-6-yl)-3-methylphenyl)-2-chloro-N-methylbenzene-sulfonamide] the IC50 was 100 to 10000 nM.
In the case of `CCc1cc(-c2cc(F)c(NS(=O)(=O)c3ccccc3Cl)c(F)c2)cc2cnc(N[C@H]3CC[C@H](N)CC3)nc12` [Compound 63, N-(4-(2-(((1r,4r)-4-aminocyclohexyl)amino)-8-ethylquinazolin-6-yl)-2,6-difluorophenyl)-2-chlorobenzene-sulfonamide], the IC50 is reported as ≤ 5 nM.
Work on `COc1nc(NS(=O)(=O)c2ccccc2Cl)c(F)cc1-c1cc(C)c2nc(N[C@H]3CC[C@@H](N(C)C)CC3)ncc2c1` [Compound 147, 2-chloro-N-(5-(2-(((1s,4s)-4-(dimethylamino)cyclohexyl)amino)-8-methylquinazolin-6-yl)-3-fluoro-6-methoxypyridin-2-yl)benzenesulfonamide] yielded an IC50 of 5 to 50 nM.
For `CCc1cc(-n2cc(NS(=O)(=O)c3ccccc3Cl)cn2)cc2cnc(N[C@H]3CC[C@H](N)CC3)nc12` [Compound 43, N-(1-(2-(((1r,4r)-4-aminocyclohexyl)amino)-8-ethylquinazolin-6-yl)-1H-pyrazol-4-yl)-2-chlorobenzene-sulfonamide], the IC50 was ≤ 5 nM.
For `CCc1cc(-c2cnc(NS(=O)(=O)c3ccccc3Cl)nc2)cc2cnc(N[C@H]3CC[C@H](N)CC3)nc12` [Compound 39, N-(5-(2-(((1r,4r)-4-aminocyclohexyl)amino)-8-ethylquinazolin-6-yl)pyrimidin-2-yl)-2-chlorobenzene-sulfonamide], the IC50 was ≤ 5 nM.
In the case of `CCc1cc(-c2cc(F)c(NS(=O)(=O)c3ccccc3Cl)nc2OC)cc2cnc(N[C@H]3CC[C@@H](N(C)C)CC3)nc12` [Compound 142, 2-chloro-N-(5-(2-(((1s,4s)-4-(dimethylamino)cyclohexyl)amino)-8-ethylquinazolin-6-yl)-3-fluoro-6-methoxypyridin-2-yl)benzenesulfonamide], the IC50 is reported as 5 to 50 nM.
For `COc1nc(NS(=O)(=O)c2ccccc2Cl)ccc1-c1cc(C)c2nc(N[C@H]3CC[C@@H](N(C)C)CC3)ncc2c1` [Compound 139, 2-chloro-N-(5-(2-(((1s,4s)-4-(dimethylamino)cyclohexyl)amino)-8-methylquinazolin-6-yl)-6-methoxypyridin-2-yl)benzenesulfonamide], the IC50 was 5 to 50 nM.
`CCc1cc(-c2cc(F)c(NS(=O)(=O)c3ccccc3Cl)nc2OC)cc2cnc(N[C@H]3CC[C@@](C)(N(C)C)CC3)nc12` [Compound 144, 2-chloro-N-(5-(2-(((1s,4s)-4-(dimethylamino)-4-methylcyclohexyl)amino)-8-ethylquinazolin-6-yl)-3-fluoro-6-methoxypyridin-2-yl)benzenesulfonamide] showed an IC50 of 50 to 100 nM.
`CC(C)c1cc(-c2cc(NS(=O)(=O)c3ccccc3Cl)nn2C)cc2cnc(N[C@H]3CC[C@H](N)CC3)nc12` [Compound 40, N-(5-(2-(((1r,4r) 4-aminocyclohexyl)amino)-8-isopropylquiazolin-6-yl)-1-methyl-1H-pyrazol-3-yl)-2-chlorobenzene-sulfonamide] was tested, and the IC50 was ≤ 5 nM.
Work on `Cc1nc(NS(=O)(=O)c2ccccc2Cl)c(F)cc1-c1cc(F)c2nc(N[C@H]3CC[C@H](N(C)C)CC3)ncc2c1` [Compound 156, 2-chloro-N-(5-(2-(((1r,4r)-4-(dimethylamino)cyclohexyl)amino)-8-fluoroquinazolin-6-yl)-3-fluoro-6-methylpyridin-2-yl)benzenesulfonamide] yielded an IC50 of 100 to 10000 nM.
With `CCc1cc(-c2sc(NS(=O)(=O)c3ccccc3Cl)nc2C)cc2cnc(N[C@H]3CC[C@H](N)CC3)nc12` [Compound 38] the IC50 was ≤ 5 nM.

What follows are molecules tested on IRE1a (assay: IRE1a Endoribonuclease Nanoluciferase Assay (XBP1 luciferase reporter in 293T cells)). Details: Homo sapiens, HEK-293T, ER stressor, tested as Formic Acid Salt (37: HCl Salt).
Format: cell-based, human
Method: Compounds disclosed herein assessed for disruption of IRE1 signaling using a IRE1a Endoribonuclease Nanoluciferase Assay. Briefly, 25×10^5 293T cells were seeded in a 10 cm^2 tissue culture plate. About 24 hours later, the cells were transfected with Effectene. In a 15 mL tube, the following was added: 2 ug XBP1 luciferase reporter plasmid (PGK-Luc2-P2A-XBP1u-Nanoluciferase-Pest); 300 ul EC buffer; and 16 ul Enhancer, followed by incubation at room temp for 5 minutes. Next, 60 ul Effectene (Qiagen 301427) was added, followed by incubation at room temperature for 10 minutes. 2.6 mL cDMEM media was added. Old media was aspirated from the cells, followed by addition of 7 mL fresh media. Full transfection mixture was added dropwise to cells. Cells were incubated for 6 hours, followed by trypsinization, centrifugation and resuspension in 11 mL fresh cDMEM media. 100 uL of cells were plated per a well in a 96 well plate. A day later, ER stressors of choice +/−inhibitors were added. To harvest, media was aspirated from cells completely, then 50 uL 1× passive lysis buffer (Promega: E1941) was added per well and put on shaker (300 rpm) for 30 minutes at room temperature. Cells were centrifuged, and 15 uL sample per well was added to a new, opaque white 384 well plate (Corning 3570). 15 uL OneGlo (nanoluciferase kit, Promega N1630) was added. Plates were spun down, placed on shaker (300 rpm) for 10 minutes. Plates were read on luminometer, 1000 ms integration time per well. 15 uL Stop an Glo (nanoluciferase kit) was added. Plates were spun down, placed on shaker (300 rpm) for 10 minutes. Plates were read on luminometer, 1000 ms second integration time per well. Recordings are provided below in Table 4.
`CCc1cc(-c2ccc(NS(=O)(=O)c3ccccc3Cl)c(F)c2)cc2cnc(N[C@H]3CC[C@H](NC(=O)[C@@H](N)C(C)C)CC3)nc12` [Compound 58, (S)-2-amino-N-((1r,4S)-4-((6-(4-((2-chlorophenyl)sulfonamido)-3-fluorophenyl)-8-ethylquinazolin-2-yl)amino)cyclohexyl)-3-methylbutanamide] was tested, and the EC50 was ≤ 5 nM.
With `CCc1cc(-c2ccc(NS(=O)(=O)c3ccccc3Cl)c(F)c2)cc2cnc(N[C@@H]3CC[C@H](N)[C@H](C)C3)nc12` [Compound 70, N-(4-(2-(((1R,3R,4S)-4-amino-3-methylcyclohexyl)amino)-8-ethylquinazolin-6-yl)-2-fluorophenyl)-2-chlorobenzene-sulfonamide] the EC50 was ≤ 5 nM.
`N[C@H]1CC[C@@H](Nc2ncc3cc(-c4ccc(NS(=O)(=O)c5ccccc5Cl)c(F)c4)ccc3n2)C1` [Compound 80, N-(4-(2-(((1R,3S)-3-aminocyclopentyl)amino)quinazolin-6-yl)-2-fluorophenyl)-2-chlorobenzene-sulfonamide] showed an EC50 of 100 to 10000 nM.
